Counter-ions that a name gives are not always drawn. Like-named read-outs stand apart in the source and are kept apart here.
How the values were obtained:
Format in all cases: biochemical
[1] = target: T1, Recombinant Human Anaplastic Lymphoma Kinase (Homo sapiens, UniProt Q9UM73); experiment: ALK HTRF kinase assay
T1 construct: purchased Invitrogen, Carlsbad, Calif
Text: Materials: Recombinant Human Anaplastic Lymphoma Kinase was purchased from Invitrogen, Carlsbad, Calif. Peptide substrate (Biotin-[…]-amide) was custom synthesized at EZBiolab, Westfield, Ind. Streptavidin conjugated SureLight-Allophycocyania and LANCE Eu-W1024 labeled anti-phosphotyrosine antibody were from Perkin-Elmer, Boston, Mass. Microplates were from Corning Inc., Acton, Mass. All other reagents were from Sigma, St. Louis, Mo.
Plates were read in Fusion α-FP instrument (Perkin-Elmer). […] Signal=Bottom+(Top−Bottom)/(1+10^((Log(IC50)−Log [I])*Hill Slope) Bottom and Top refer to the post and pre-transition baselines, respectively.

[2] = target: T2, human JAK2 (a.a. 828-1132) (Homo sapiens, UniProt O60674); experiment: In vitro JAK kinase assay (HTRF, phosphorylation of a biotinylated peptide), JAK2
T2 construct: JAK2 (a.a. 828-1132); His tag (N); made in house; host or cells: insect cells (baculovirus)
T2 sequence (O60674 828-1132): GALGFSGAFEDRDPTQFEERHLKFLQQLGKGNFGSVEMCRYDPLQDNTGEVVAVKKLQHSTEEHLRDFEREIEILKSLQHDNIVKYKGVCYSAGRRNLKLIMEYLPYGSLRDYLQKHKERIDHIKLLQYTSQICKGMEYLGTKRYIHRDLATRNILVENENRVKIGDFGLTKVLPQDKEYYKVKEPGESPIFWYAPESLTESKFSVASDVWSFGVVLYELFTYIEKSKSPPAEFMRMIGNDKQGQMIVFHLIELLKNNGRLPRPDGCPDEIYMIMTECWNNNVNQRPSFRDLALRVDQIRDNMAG
Procedure, shortened: (§1)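 Phosphorylation of a biotinylated peptide by the JAK kinase domain, detected by HTRF with Eu-Py20 and SA-APC. ATP was 90 μM for JAK1, 30 μM for JAK2 and 3 μM for JAK3. Reactions ran 1 h at room temperature and were stopped with EDTA, followed by 40 min antibody binding.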

[3] = target: T3, human JAK1 (a.a. 837-1142) (Homo sapiens, UniProt P23458); experiment: In vitro JAK kinase assay (HTRF, phosphorylation of a biotinylated peptide), JAK1; details: read-out: JAK1 IC50
T3 construct: human JAK1 (a.a. 837-1142); His tag (N); made in house; host or cells: insect cells (baculovirus)
T3 sequence (P23458 849-1154): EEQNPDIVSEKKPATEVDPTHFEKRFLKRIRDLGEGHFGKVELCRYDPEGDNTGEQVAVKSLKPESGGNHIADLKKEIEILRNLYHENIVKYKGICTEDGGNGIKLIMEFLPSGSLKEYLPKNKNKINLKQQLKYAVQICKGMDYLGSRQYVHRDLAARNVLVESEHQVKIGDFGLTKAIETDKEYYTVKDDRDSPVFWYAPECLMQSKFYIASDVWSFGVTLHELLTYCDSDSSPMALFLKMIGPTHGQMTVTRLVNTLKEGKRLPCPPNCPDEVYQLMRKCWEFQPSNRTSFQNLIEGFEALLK
Procedure, shortened: as §1

TYK2 = TYK2 (Homo sapiens, UniProt P29597); experiment: TYK2 kinase inhibition (Table A1)
TYK2, sequence (P29597 whole entry): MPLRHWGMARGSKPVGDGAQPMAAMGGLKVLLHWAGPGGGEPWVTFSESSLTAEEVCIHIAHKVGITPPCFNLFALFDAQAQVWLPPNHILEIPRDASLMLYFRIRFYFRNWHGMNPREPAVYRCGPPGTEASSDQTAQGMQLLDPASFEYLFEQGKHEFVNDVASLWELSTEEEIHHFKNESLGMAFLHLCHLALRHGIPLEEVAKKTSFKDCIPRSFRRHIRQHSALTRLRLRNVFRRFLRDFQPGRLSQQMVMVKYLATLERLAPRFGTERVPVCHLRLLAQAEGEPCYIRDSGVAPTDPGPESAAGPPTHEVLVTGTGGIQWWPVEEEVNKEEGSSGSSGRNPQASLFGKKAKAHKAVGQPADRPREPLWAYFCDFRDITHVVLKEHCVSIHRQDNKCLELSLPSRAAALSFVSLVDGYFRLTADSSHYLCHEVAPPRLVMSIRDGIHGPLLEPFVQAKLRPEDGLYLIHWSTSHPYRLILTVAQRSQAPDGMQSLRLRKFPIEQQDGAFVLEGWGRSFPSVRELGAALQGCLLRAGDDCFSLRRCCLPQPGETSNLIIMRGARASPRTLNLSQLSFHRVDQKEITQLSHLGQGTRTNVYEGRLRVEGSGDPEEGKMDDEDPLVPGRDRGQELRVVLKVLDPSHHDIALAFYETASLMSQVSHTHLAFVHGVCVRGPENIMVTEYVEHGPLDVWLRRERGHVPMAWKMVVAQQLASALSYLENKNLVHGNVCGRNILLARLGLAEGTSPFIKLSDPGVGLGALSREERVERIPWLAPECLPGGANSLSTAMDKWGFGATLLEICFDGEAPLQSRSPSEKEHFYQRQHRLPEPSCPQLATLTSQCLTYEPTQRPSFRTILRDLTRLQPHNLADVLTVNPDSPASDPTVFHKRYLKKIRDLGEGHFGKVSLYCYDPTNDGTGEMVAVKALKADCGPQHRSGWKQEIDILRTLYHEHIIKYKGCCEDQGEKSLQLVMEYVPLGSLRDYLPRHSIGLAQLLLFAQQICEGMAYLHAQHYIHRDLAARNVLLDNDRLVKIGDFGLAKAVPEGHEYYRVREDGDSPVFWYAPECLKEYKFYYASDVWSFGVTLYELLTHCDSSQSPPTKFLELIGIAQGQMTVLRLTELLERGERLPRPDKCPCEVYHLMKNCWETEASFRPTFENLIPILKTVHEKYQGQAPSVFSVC

[4] = target: T4, human JAK3 (a.a. 781-1124) (Homo sapiens, UniProt P52333); experiment: In vitro JAK kinase assay (HTRF, phosphorylation of a biotinylated peptide), JAK3
T4 construct: JAK3 (a.a. 781-1124); His tag (N); made in house; host or cells: insect cells (baculovirus)
T4 sequence (P52333 781-1124): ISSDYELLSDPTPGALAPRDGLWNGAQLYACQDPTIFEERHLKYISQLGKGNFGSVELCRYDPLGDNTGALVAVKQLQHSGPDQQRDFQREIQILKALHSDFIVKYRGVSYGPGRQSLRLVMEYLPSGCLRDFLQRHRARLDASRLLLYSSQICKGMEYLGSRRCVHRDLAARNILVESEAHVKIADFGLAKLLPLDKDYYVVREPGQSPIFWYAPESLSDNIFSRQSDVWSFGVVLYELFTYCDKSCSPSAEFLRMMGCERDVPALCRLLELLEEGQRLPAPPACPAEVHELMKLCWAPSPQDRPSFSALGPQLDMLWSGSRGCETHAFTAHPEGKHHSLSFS
Procedure, shortened: as §1

[5] = method AA1 (30 μM ATP) or AA2 (1000 μM ATP), not stated per value
[6] = method AA1 (90 μM ATP) or AA2 (1000 μM ATP), not stated per value
[7] = method AA1 (3 μM ATP) or AA2 (1000 μM ATP), not stated per value
[8] = compound at 500 nM or 1 mM, 90 μM ATP

T1 sequence (Q9UM73 19-1620): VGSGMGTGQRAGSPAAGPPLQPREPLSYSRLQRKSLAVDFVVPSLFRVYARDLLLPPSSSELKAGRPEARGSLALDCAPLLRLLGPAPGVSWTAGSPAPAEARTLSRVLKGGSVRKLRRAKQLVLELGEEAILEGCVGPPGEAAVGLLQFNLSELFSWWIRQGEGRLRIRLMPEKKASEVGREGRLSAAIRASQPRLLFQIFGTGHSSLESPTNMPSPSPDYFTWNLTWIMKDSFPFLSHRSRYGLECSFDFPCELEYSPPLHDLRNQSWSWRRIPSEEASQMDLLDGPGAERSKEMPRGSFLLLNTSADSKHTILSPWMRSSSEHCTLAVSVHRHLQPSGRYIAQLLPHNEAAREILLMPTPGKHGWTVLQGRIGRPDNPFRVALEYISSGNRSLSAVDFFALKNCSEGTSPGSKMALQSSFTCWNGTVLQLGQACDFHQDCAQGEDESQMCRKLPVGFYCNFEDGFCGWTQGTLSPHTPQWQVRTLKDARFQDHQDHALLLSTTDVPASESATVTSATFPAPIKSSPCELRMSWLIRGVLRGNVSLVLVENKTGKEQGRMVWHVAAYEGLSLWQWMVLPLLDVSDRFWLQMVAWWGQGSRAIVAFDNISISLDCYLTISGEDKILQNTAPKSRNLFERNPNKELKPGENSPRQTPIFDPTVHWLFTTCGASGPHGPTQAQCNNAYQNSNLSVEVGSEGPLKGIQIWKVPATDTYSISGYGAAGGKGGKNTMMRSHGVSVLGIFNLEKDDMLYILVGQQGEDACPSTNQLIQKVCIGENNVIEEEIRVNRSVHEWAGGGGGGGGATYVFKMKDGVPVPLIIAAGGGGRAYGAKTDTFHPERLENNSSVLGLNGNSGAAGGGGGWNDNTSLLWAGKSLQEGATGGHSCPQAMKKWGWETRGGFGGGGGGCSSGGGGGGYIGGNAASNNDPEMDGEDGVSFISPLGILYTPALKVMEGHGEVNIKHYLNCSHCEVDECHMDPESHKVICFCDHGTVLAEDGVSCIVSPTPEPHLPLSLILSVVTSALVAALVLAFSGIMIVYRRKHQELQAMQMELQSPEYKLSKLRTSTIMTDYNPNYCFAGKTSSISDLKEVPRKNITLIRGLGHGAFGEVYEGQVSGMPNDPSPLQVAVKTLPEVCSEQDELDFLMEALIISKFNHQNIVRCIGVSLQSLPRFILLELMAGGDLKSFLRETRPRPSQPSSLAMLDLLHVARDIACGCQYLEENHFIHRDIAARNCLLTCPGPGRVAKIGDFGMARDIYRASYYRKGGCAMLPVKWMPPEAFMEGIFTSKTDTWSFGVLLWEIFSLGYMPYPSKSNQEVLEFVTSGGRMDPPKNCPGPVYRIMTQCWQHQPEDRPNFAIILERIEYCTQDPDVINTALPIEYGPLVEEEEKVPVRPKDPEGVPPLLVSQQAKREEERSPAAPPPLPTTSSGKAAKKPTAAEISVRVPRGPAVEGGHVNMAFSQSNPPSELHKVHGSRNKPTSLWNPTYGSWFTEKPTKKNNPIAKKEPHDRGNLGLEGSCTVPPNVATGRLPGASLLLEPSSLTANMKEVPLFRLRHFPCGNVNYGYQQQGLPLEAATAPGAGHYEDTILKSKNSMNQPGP

| SMILES | IC50 ([1]; 90 μM ATP) | IC50 [2, 5] | IC50 [3, 6] | IC50 (TYK2) | IC50 [4, 7] | also measured |
| --- | --- | --- | --- | --- | --- | --- |
| Clc1cnc2nc1Nc1cccc(c1)CCc1cccc(c1)N2 [Example A2, 6-Chloro-2,4,8,22-tetraazatetracyclo[14.3.1.1(3,7).1(9,13)]docosa-1(20),3(22),4,6,9(21),10,12,16,18-nonaene trifluoroacetate] | 657 nM | 9.3 nM | 12 nM | 35 nM | 26 nM |  |
| Clc1cnc2nc1Nc1cccc(c1)CCCc1cccc(c1)N2 [Example A4, 6-Chloro-2,4,8,23-tetraazatetracyclo[15.3.1.1(3,7).1(9,13)]tricosa-1(21),3(23),4,6,9(22),10,12,17,19-nonaene] | 925 nM | 54 nM | 87 nM | > 100 nM | 45 nM |  |
| Cc1cc(N2CCOCC2)c2cc1Nc1ncc(Cl)c(n1)Nc1cccc(c1)CC2 [Example A6, 6-Chloro-19-methyl-17-morpholin-4-yl-2,4,8,22-tetraazatetracyclo[14.3.1.1(3,7).1(9,13)]docosa-1(20),3(22),4,6,9(21),10,12,16,18-nonaene trifluoroacetate] | 497 nM | 8.7 nM | 700 nM | 76 nM | 802 nM |  |
| Cc1ccc2cc1Nc1ncc(Cl)c(n1)Nc1cccc(c1)CC2 [Example A7, 6-Chloro-19-methyl-2,4,8,22-tetraazatetracyclo[14.3.1.1(3,7).1(9,13)]docosa-1(20),3(22),4,6,9(21),10,12,16,18-nonaene trifluoroacetate] | 523 nM | 32 nM | 128 nM | 150 nM | 300 nM |  |
| CC(C)S(=O)(=O)c1ccc2cc1Nc1nc(ncc1Cl)Nc1cccc(c1)CC2 [Example A8, 6-Chloro-10-(isopropylsulfonyl)-2,4,8,22-tetraazatetracyclo[14.3.1.1(3,7).1(9,13)]docosa-1(20),3(22),4,6,9(21),10,12,16,18-nonaene trifluoroacetate] | 80 nM | 52 nM | 51 nM | 80 nM | 20 nM |  |
| CC(C)(C)OC(=O)N1CCN(C(=O)COc2ccc3cc2CCc2cccc(c2)Nc2ncc(Cl)c(n2)N3)CC1 [Example A17, tert-Butyl 4-({[6-chloro-2,4,8,22-tetraazatetracyclo[14.3.1.1(3,7).1(9,13)]docosa-1(20),3(22),4,6,9(21),10,12,16,18-nonaen-12-yl]oxy}acetyl)piperazine-1-carboxylate trifluoroacetate] |  | 87 nM | 85 nM |  | 217 nM | ALK % of inhibition at a concentration of 500 nM or 1 mM [1, 8]: 7% |
| Cc1noc(C)c1NC(=O)N1CCC(CC(=O)Nc2ccc3cc2CCc2cncc(c2)Nc2ncc(Cl)c(n2)N3)CC1 [Example A19, bis(trifluoroacetate)] |  | 54 nM | 17 nM |  | > 100 nM | ALK % of inhibition at a concentration of 500 nM or 1 mM ([1]; compound at 500 nM or 1 mM, 90 μM ATP, bis(trifluoroacetate)): 17% |
| N#Cc1ccc(C(=O)N2CCC(CC(=O)Nc3ccc4cc3CCc3cncc(c3)Nc3ncc(Cl)c(n3)N4)CC2)cc1 [Example A190, N-[6-Chloro-2,4,8,18,22-pentaazatetracyclo[14.3.1.1(3,7).1(9,13)]docosa-1(20),3(22),4,6,9(21),10,12,16,18-nonaen-12-yl]-2-[1-(4-cyanobenzoyl)piperidin-4-yl]acetamide bis(trifluoroacetate)] |  | > 200 nM |  | > 200 nM | > 200 nM | ALK % of inhibition at a concentration of 500 nM or 1 mM [1, 8]: 27% |
| Cc1ccccc1S(=O)(=O)Nc1ccc2cc1CCc1cccc(c1)Nc1ncc(Cl)c(n1)N2 [Example B149, N-[6-Chloro-2,4,8,22-tetraazatetracyclo[14.3.1.1(3,7).1(9,13)]docosa-1(20), 3(22),4,6,9(21),10,12,16,18-nonaen-12-yl]-2-methylbenzenesulfonamide trifluoroacetate] |  |  |  |  |  | IC50 ([1]; Table B1, cells without percent sign): 350 nM; IC50 ([3]; Table B1): 0.15 nM; IC50 (TYK2; Table B1): 0.51 nM; IC50 ([4]; Table B1): 2.4 nM |
| O=C(Nc1ccc2cc1CCc1cncc(c1)Nc1ncc(Cl)c(n1)N2)N1CCN(c2ncc(C(F)(F)F)cc2Cl)CC1 [Example B302, N-[6-Chloro-2,4,8,18,22-pentaazatetracyclo[14.3.1.1(3,7).1(9,13)]docosa-1(20),3(22),4,6,9(21),10,12,16,18-nonaen-12-yl]-4-[3-chloro-5-(trifluoromethyl)pyridin-2-yl]piperazine-1-carboxamide tris(trifluoroacetate)] |  |  |  |  |  | ALK % of inhibition at a concentration of 500 nM or 1 mM ([1]; percentage inhibition of the example compound at a concentration of 500 nM or 1 mM (not specified which)): 69%; IC50 ([2]; Table B1): > 400 nM; IC50 ([3]; Table B1): 119 nM; IC50 ([4]; Table B1): > 400 nM |
| Clc1cnc2nc1Nc1cccc(c1)NCc1cccc(c1)N2 [Example D16, 6-Chloro-2,4,8,14,22-pentaazatetracyclo[14.3.1.1(3,7).1(9,13)]docosa-1(20),3(22),4,6,9(21),10,12,16,18-nonaene bis(trifluoroacetate)] |  |  |  |  |  | IC50 ([1]; Table D1, 90 μM ATP): > 10000 nM; IC50 ([2]; Table D1): 113 nM; IC50 ([3]; Table D1): 144 nM; IC50 ([4]; Table D1): 325 nM |
| [O-][S+]1CCc2cccc(c2)Nc2ncc(Cl)c(n2)Nc2cccc1c2 (stereo not drawn) [Example D23, 6-Chloro-14-thia-2,4,8,23-tetraazatetracyclo[15.3.1.1(3,7).1(9,13)]tricosa-1(21),3(23),4,6,9(22),10,12,17,19-nonaene 14-oxide trifluoroacetate] |  |  |  |  |  | IC50 ([1]; Table D1, 90 μM ATP): 1210 nM; IC50 ([2]; Table D1): 4.9 nM; IC50 (TYK2; Table D1): 23 nM; IC50 ([4]; Table D1): 21 nM |

Second part, led by results:

| IC50 ([1]; 90 μM ATP) | IC50 [2, 5] | IC50 [3, 6] | IC50 (TYK2) | IC50 [4, 7] | SMILES | also measured |
| --- | --- | --- | --- | --- | --- | --- |
| 415 nM | 2.7 nM | 6 nM | 4.7 nM | 8.5 nM | Clc1cnc2nc1Nc1cccc(c1)/C=C\c1cccc(c1)N2 [Example A1, (14Z)-6-Chloro-2,4,8,22-tetraazatetracyclo[14.3.1.1(3,7).1(9,13)]docosa-1(20),3(22),4,6,9(21),10,12,14,16,18-decaene trifluoroacetate] |  |
| 2040 nM | 15 nM | 50 nM | 55 nM | 45 nM | c1cc2cc(c1)Nc1ccnc(n1)Nc1cccc(c1)CC2 [Example A3, 2,4,8,22-Tetraazatetracyclo[14.3.1.1(3,7).1(9,13)]docosa-1(20),3(22),4,6,9(21),10,12,16,18-nonaene trifluoroacetate] |  |
| 6180 nM | 56 nM | > 100 nM | > 100 nM | > 100 nM | O=C1CCc2cccc(c2)Nc2nc(ncc2Cl)Nc2cccc1c2 [Example A5, 6-Chloro-2,4,8,23-tetraazatetracyclo[15.3.1.1(3,7).1(9,13)]tricosa-1(21),3(23),4,6,9(22),10,12,17,19-nonaen-16-one trifluoroacetate] |  |
|  | 19 nM | 9.1 nM | 22 nM | 67 nM | N#Cc1ccc(NC(=O)N2CCN(C(=O)COc3ccc4cc3CCc3cccc(c3)Nc3ncc(Cl)c(n3)N4)CC2)cc1 [Example A9, 4-({[6-Chloro-2,4,8,22-tetraazatetracyclo[14.3.1.1(3,7).1(9,13)]docosa-1(20),3(22),4,6,9(21),10,12,16,18-nonaen-12-yl]oxy}acetyl)-N-(4-cyanophenyl)piperazine-1-carboxamide trifluoroacetate] | ALK % of inhibition at a concentration of 500 nM or 1 mM [1, 8]: 0% |
|  | > 200 nM |  | > 200 nM | > 200 nM | COc1cccc(S(=O)(=O)N2CCC(CC(=O)Nc3ccc4cc3CCc3cccc(c3)Nc3ncc(Cl)c(n3)N4)CC2)c1 [Example A206, N-[6-Chloro-2,4,8,22-tetraazatetracyclo[14.3.1.1(3,7).1(9,13)]docosa-1(20),3(22),4,6,9(21),10,12,16,18-nonaen-12-yl]-2-{1-[(3-methoxyphenyl)sulfonyl]piperidin-4-yl}acetamide trifluoroacetate] | ALK % of inhibition at a concentration of 500 nM or 1 mM [1, 8]: 15% |
|  | 244 nM | 18 nM |  | > 400 nM | Cc1ccc(C#N)c(N2CCC(CC(=O)Nc3ccc4cc3CCc3cncc(c3)Nc3ncc(Cl)c(n3)N4)CC2)n1 [Example A238, N-[6-Chloro-2,4,8,18,22-pentaazatetracyclo[14.3.1.1(3,7).1(9,13)]docosa-1(20),3(22),4,6,9(21),10,12,16,18-nonaen-12-yl]-2-[1-(3-cyano-6-methylpyridin-2-yl)piperidin-4-yl]acetamide tris(trifluoroacetate)] | ALK % of inhibition at a concentration of 500 nM or 1 mM [1, 8]: 15% |

Source: US8871753B2, “Macrocyclic compounds and their use as kinase inhibitors” (Incyte Corporation, priority 2008, dated 2014)
